US5648458A, “Peptides and compounds that bind to ELAM-1” (Affymax Technologies N.V., priority 1995, dated 1997)
Ends that are not written are not given here.

Target: T1, immobilized ELAM-1 (Homo sapiens, UniProt P16581)
T1 construct: truncated form comprising the complete extracellular domain (amino acids 1 through 554); made in house
T1 sequence (P16581 22-554): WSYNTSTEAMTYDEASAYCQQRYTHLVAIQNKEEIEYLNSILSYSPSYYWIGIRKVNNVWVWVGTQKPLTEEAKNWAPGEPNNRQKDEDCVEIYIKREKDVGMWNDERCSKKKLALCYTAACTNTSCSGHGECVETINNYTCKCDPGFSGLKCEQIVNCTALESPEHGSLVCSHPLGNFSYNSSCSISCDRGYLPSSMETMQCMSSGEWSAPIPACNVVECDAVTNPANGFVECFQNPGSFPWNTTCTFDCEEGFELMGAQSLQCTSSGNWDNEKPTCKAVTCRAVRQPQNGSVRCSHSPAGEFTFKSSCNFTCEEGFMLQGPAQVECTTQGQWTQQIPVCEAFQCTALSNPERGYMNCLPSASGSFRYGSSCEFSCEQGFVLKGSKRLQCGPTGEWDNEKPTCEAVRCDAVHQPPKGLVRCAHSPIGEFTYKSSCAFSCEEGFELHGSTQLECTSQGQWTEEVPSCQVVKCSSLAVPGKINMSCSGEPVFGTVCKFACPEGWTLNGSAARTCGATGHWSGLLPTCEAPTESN
Type: cell-based
Details: 200000.0
Procedure: The assay requires HL60 cells labeled with tritiated thymidine. […] The cells are then placed in a T75 flask and incubated at 37° C. for 24 hours. The cells are then collected by centrifugation, washed twice with RPMI/HEPES/0.1% FCS, and resuspended in the same solution at a concentration of about one to two million cells per mL. About 100 μL of this cell preparation are used per well of a 96-well microtiter dish in the assay. The wells of the microtiter dish were first coated with the anti-receptor immobilizing antibody, an anti-HPAP-tail antibody, using about 2.5 μg of antibody per well. […] Then, the wells were washed three times with RPMI 1640 plus 0.1% FCS using a multichannel pipettor.

- blocking of HL60 cell binding, relative to binding in the absence of added compound: over 80%
Sequence: HITWDQLWNVMN
